Results on 33 compounds are retold here after patent publication US11685732B2, “MYST family histone acetyltransferase inhibitors” (Epizyme, Inc., priority 2017, dated 2023).

Test [1] addresses KAT-5 (Homo sapiens (Human), UniProt Q92993). The test is described as follows: KAT-5 biochemical inhibition assay (SAMDI mass spectrometry). An outline of the steps: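 Acetylation of 1 μM peptide by 9 nM enzyme with 0.5 μM acetyl-CoA (final) was run 90 min at 25° C in Tris pH 8.0 buffer with DTT, after compound preincubation at 2% DMSO. Formic acid stopped the reaction, and product was quantified by SAMDI mass spectrometry to derive IC50.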

Test [2] has as its target KAT-7 (Homo sapiens (Human), UniProt O95251). Kind of test: KAT-7 biochemical inhibition assay (SAMDI mass spectrometry). An outline of the steps:
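Read-out was SAMDI time-of-flight MS of formic acid-quenched reactions (0.5% final). Compound dilutions (2% DMSO final) were pre-incubated with 6 nM KAT-7 in 50 mM Tris pH 8.0 with 1 mM DTT, then given 1 μM peptide substrate and 2 μM acetyl-CoA for 120 min at 25 °C. IC50 values were derived.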

Test [3] has as its target KAT-6A (Homo sapiens (Human), UniProt Q92794). Kind of test: KAT-6A biochemical inhibition assay (SAMDI mass spectrometry). An outline of the steps: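 IC50 values came from SAMDI time-of-flight mass spectrometry after formic acid quench (0.5% final). Acetylation ran 90 min at 25 °C with 1 μM acetyl coenzyme A and 1 μM peptide substrate, following compound pre-incubation with 12.5 nM KAT-6A in Tris buffer pH 8.0 containing DTT, 2% DMSO final.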

Test [4] addresses KAT-8 (Homo sapiens (Human), UniProt Q9H7Z6). Kind of test: KAT-8 biochemical inhibition assay (SAMDI mass spectrometry). The method in brief:
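Acetylation of 1 μM peptide substrate with 5 μM acetyl-CoA by 12.5 nM enzyme, compound pre-incubated, 2% DMSO, Tris pH 8.0 buffer with DTT, 25 °C for 90 min. Quench with 0.5% formic acid; product read by SAMDI mass spectrometry to give IC50.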

KAT-8, sequence (Q9H7Z6 other isoform, or with tags, fused parts or gaps): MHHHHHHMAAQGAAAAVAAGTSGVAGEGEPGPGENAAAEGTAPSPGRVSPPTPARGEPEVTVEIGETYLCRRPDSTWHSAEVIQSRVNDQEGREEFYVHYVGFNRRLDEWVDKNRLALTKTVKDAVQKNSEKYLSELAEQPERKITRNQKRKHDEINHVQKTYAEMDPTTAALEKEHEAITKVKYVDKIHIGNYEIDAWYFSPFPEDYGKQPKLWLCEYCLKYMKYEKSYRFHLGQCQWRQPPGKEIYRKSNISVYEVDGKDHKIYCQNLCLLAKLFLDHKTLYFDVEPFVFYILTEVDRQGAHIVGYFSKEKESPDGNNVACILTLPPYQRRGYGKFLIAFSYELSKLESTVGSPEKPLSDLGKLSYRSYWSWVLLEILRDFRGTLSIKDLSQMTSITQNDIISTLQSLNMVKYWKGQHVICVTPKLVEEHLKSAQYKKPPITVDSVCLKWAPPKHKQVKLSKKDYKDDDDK
KAT-7, sequence (O95251 other isoform, or with tags, fused parts or gaps): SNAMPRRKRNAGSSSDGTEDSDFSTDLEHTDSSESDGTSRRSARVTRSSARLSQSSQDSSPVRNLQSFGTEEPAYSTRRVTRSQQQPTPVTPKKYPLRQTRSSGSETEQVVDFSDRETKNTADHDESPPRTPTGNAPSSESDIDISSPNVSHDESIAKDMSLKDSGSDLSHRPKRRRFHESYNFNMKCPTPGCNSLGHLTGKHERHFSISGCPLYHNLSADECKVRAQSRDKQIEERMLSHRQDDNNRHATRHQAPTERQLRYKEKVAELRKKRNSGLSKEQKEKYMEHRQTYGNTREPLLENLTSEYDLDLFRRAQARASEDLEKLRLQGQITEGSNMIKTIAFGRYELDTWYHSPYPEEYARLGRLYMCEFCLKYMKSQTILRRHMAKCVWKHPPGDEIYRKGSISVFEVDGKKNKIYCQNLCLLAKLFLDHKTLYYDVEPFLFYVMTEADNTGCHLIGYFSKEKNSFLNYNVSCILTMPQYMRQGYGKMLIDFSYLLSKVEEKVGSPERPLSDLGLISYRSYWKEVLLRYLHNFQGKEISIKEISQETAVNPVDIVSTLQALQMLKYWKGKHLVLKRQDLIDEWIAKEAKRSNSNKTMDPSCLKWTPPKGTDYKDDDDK
KAT-5, sequence (Q92993 other isoform, or with tags, fused parts or gaps): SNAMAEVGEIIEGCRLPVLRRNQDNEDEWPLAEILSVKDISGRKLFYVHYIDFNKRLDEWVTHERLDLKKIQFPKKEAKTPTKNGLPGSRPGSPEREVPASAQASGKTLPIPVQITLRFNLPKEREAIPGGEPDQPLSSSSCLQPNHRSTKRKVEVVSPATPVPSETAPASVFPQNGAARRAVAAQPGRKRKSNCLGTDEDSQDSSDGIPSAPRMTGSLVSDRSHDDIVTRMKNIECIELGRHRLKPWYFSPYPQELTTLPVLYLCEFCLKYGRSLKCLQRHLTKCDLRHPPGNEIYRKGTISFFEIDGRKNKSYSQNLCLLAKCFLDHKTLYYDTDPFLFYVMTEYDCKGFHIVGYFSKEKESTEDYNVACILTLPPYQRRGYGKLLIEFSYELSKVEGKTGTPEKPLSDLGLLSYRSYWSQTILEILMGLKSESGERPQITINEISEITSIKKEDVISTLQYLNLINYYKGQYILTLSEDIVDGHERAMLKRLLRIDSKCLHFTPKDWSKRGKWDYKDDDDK
KAT-6A, sequence (Q92794 other isoform, or with tags, fused parts or gaps): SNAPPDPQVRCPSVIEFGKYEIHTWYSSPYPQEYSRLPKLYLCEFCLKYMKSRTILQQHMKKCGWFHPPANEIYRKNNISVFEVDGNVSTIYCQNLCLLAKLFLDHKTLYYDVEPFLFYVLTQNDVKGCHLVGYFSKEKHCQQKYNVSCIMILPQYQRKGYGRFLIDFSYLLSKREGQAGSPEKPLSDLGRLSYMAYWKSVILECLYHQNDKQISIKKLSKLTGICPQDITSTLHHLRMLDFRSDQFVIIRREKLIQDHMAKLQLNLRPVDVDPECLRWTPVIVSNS

What is called IC50 is the concentration at which inhibition is half-maximal. Lower therefore signals higher potency. As to `Cn1cnc(-c2cc(Cl)c(F)c(C(=O)NNS(=O)(=O)CC3CC4CCC(C3)O4)c2)c1` (stereo not drawn) [Compound I-242], the IC50 is < 10 µM in test [1], < 10 µM in test [2], < 10 µM in test [3] and 10 to 50 µM in test [4].

As for `Cn1cnc(-c2cc(Cl)c(F)c(C(=O)NNS(=O)(=O)CC3CCCC(NC(=O)Cc4cccnc4)C3)c2)c1` (stereo not drawn) [Compound I-243], the 50% inhibitory concentration (IC50) in test [1] is < 10 µM; in test [2] it was < 10 µM; in test [3], < 10 µM; in test [4] it was 10 to 50 µM.

Take `Cn1cnc(-c2cc(Cl)c(F)c(C(=O)NNS(=O)(=O)CCC3CCOCC3)c2)c1` [Compound I-244]: the IC50 was < 10 µM in test [1], < 10 µM in test [2], < 10 µM in test [3] and 10 to 50 µM in test [4].

As to `Cn1cnc(-c2cc(Cl)c(F)c(C(=O)NNS(=O)(=O)C[C@H]3CC[C@H](NC(=O)c4ccccn4)CC3)c2)c1` [Compound I-245], the IC50 in test [1] is < 10 µM; in test [2], < 10 µM; in test [3] it was < 10 µM; in test [4], 10 to 50 µM.

Turning to `Cn1cnc(-c2cc(Cl)c(F)c(C(=O)NNS(=O)(=O)C[C@H]3CC[C@@H](NC(=O)C4CCC4)CC3)c2)c1` [Compound I-246], the half-inhibitory concentration (IC50) in test [1] is < 10 µM; in test [2] it was < 10 µM; in test [3], < 10 µM; in test [4], 10 to 50 µM.

As to `Cn1cnc(-c2cc(Cl)c(F)c(C(=O)NNS(=O)(=O)CC3CCCC(NC(=O)Cc4ccncc4)C3)c2)c1` (stereo not drawn) [Compound I-247], the concentration for half-maximal inhibition (IC50) is < 10 µM in test [1], < 10 µM in test [2], < 10 µM in test [3] and 10 to 50 µM in test [4].

On to `Cn1cnc(-c2cc(Cl)c(F)c(C(=O)NNS(=O)(=O)C[C@H]3CC[C@@H](NS(C)(=O)=O)CC3)c2)c1` [Compound I-248], for which the 50% inhibitory concentration (IC50) in test [1] was < 10 µM; in test [2], < 10 µM; in test [3], < 10 µM; in test [4], 10 to 50 µM.

As for `Cn1cnc(-c2cc(Cl)c(F)c(C(=O)NNS(=O)(=O)C[C@H]3CC[C@H](NC(=O)Cc4ccccn4)CC3)c2)c1` [Compound I-249], the 50% inhibitory concentration (IC50) was < 10 µM in test [1], < 10 µM in test [2], < 10 µM in test [3] and 10 to 50 µM in test [4].

Turning to `Cn1cnc(-c2cc(Cl)c(F)c(C(=O)NNS(=O)(=O)CC3CCC4CCC3N4C(=O)OC(C)(C)C)c2)c1` (stereo not drawn) [Compound I-250], the IC50 in test [1] is < 10 µM; in test [2], < 10 µM; in test [3], 10 to 50 µM; in test [4] it was 10 to 50 µM.

Turning to `Cn1cnc(-c2cc(Cl)c(F)c(C(=O)NNS(=O)(=O)CC3CCC4CCC3N4)c2)c1` (stereo not drawn) [Compound I-251], the IC50 in test [1] is 10 to 50 µM; in test [2], < 10 µM; in test [3] it was 10 to 50 µM; in test [4] it was 10 to 50 µM.

`Cn1cnc(-c2cc(Cl)c(F)c(C(=O)NNS(=O)(=O)C[C@H]3CCC[C@@H](NC(=O)OC(C)(C)C)C3)c2)c1` [Compound I-252]: the 50% inhibitory concentration (IC50) in test [1] is < 10 µM; in test [2] it was < 10 µM; in test [3] it was < 10 µM; in test [4], 10 to 50 µM.

Turning to `Cn1cnc(-c2cc(Cl)c(F)c(C(=O)NNS(=O)(=O)C[C@H]3CCC[C@@H](N)C3)c2)c1` [Compound I-253], the IC50 was 10 to 50 µM in test [1], < 10 µM in test [2], 10 to 50 µM in test [3] and 10 to 50 µM in test [4].

`Cn1cnc(-c2cc(Cl)c(F)c(C(=O)NNS(=O)(=O)C[C@H]3CC[C@H](NC(=O)Cc4ccncc4)CC3)c2)c1` [Compound I-254]: the IC50 in test [1] is < 10 µM; in test [2], < 10 µM; in test [3], < 10 µM; in test [4], 10 to 50 µM.

`CCC1CC(CS(=O)(=O)NNC(=O)c2cc(-c3cn(C)cn3)cc(Cl)c2F)CC1=O` (stereo not drawn) [Compound I-255]: the concentration for half-maximal inhibition (IC50) in test [1] was 10 to 50 µM; in test [2], < 10 µM; in test [3] it was 10 to 50 µM; in test [4], 10 to 50 µM.

Regarding `CC(C1CCCCC1)S(=O)(=O)NNC(=O)c1cc(-c2cn(C)cn2)cc(Cl)c1F` (stereo not drawn) [Compound I-256], the IC50 in test [1] is < 10 µM; in test [2] it was < 10 µM; in test [3], < 10 µM; in test [4] it was 10 to 50 µM.

`Cn1cnc(-c2cc(Cl)c(F)c(C(=O)NNS(=O)(=O)c3cncs3)c2)c1` [Compound I-257]: the IC50 in test [1], in test [2], in test [3] and in test [4] was 10 to 50 µM in each case.

Consider `Cn1cnc(-c2cc(Cl)c(F)c(C(=O)NNS(=O)(=O)C[C@H]3CC[C@H](NC(=O)Cc4cccnc4)CC3)c2)c1` [Compound I-258], for which the IC50 in test [1] is < 10 µM; in test [2], < 10 µM; in test [3], < 10 µM; in test [4], 10 to 50 µM.

`CCNC(=O)N1[C@H]2CC[C@@H](CS(=O)(=O)NNC(=O)c3cc(-c4cn(C)cn4)cc(Cl)c3F)[C@@H]1CC2` [Compound I-260]: the 50% inhibitory concentration (IC50) in test [1] is < 10 µM; in test [2] it was < 10 µM; in test [3] it was < 10 µM; in test [4] it was 10 to 50 µM.

As to `Cn1cnc(-c2cc(Cl)c(F)c(C(=O)NNS(=O)(=O)C[C@H]3CC[C@H]4CC[C@@H]3N4)c2)c1` [Compound I-261], the IC50 in test [1], in test [2], in test [3] and in test [4] was 10 to 50 µM in each case.

Regarding `Cn1cnc(-c2cc(Cl)c(F)c(C(=O)NNS(=O)(=O)CC3CCC(F)(F)CC3)c2)c1` [Compound I-262], the half-maximal inhibitory concentration (IC50) in test [1] is < 10 µM; in test [2] it was < 10 µM; in test [3], < 10 µM; in test [4], 10 to 50 µM.

Consider `Cn1cnc(-c2cc(Cl)c(F)c(C(=O)NNS(=O)(=O)CC3CCCc4ccccc43)c2)c1` (stereo not drawn) [Compound I-264], for which the IC50 in test [1] was < 10 µM; in test [2], < 10 µM; in test [3], < 10 µM; in test [4], 10 to 50 µM.

Take `CCNC(=O)N1[C@H]2CC[C@H](CS(=O)(=O)NNC(=O)c3cc(-c4cn(C)cn4)cc(Cl)c3F)[C@@H]1CC2` [Compound I-265]: the IC50 in test [1] is < 10 µM; in test [2] it was < 10 µM; in test [3] it was < 10 µM; in test [4], 10 to 50 µM.

Consider `CCNC(=O)N[C@@H]1CCC[C@H](CS(=O)(=O)NNC(=O)c2cc(-c3cn(C)cn3)cc(Cl)c2F)C1` [Compound I-266], for which the IC50 in test [1] was < 10 µM; in test [2] it was < 10 µM; in test [3], < 10 µM; in test [4], 10 to 50 µM.

As for `C[C@@H]1CN(C(=O)OC(C)(C)C)C[C@H]1CS(=O)(=O)NNC(=O)c1cc(-c2cn(C)cn2)cc(Cl)c1F` [Compound I-267], the IC50 is < 10 µM in test [1], < 10 µM in test [2], 10 to 50 µM in test [3] and 10 to 50 µM in test [4].

As for `CNC1CCCC(CS(=O)(=O)NNC(=O)c2cc(-c3cn(C)cn3)cc(Cl)c2F)C1` (stereo not drawn) [Compound I-280], the IC50 in test [1] was 10 to 50 µM; in test [2], < 10 µM; in test [3], 10 to 50 µM; in test [4] it was 10 to 50 µM.

As for `CN1CCN(C2CCCC(CS(=O)(=O)NNC(=O)c3cc(-c4cn(C)cn4)cc(Cl)c3F)C2)C1=O` (stereo not drawn) [Compound I-281], the IC50 is < 10 µM in test [1], < 10 µM in test [2], < 10 µM in test [3] and 10 to 50 µM in test [4].

For `Cn1cnc(-c2cc(Cl)c(F)c(C(=O)NNS(=O)(=O)Cc3cccnc3)c2)c1` [Compound I-282], the IC50 in test [1] is < 10 µM; in test [2] it was < 10 µM; in test [3], 10 to 50 µM; in test [4] it was 10 to 50 µM.

Turning to `CC(=O)N1C[C@H](CS(=O)(=O)NNC(=O)c2cc(-c3cn(C)cn3)cc(Cl)c2F)[C@@H](C)C1` [Compound I-283], the 50% inhibitory concentration (IC50) was 10 to 50 µM in test [1], < 10 µM in test [2], 10 to 50 µM in test [3] and 10 to 50 µM in test [4].

In the case of `Cn1cnc(-c2cc(Cl)c(F)c(C(=O)NNS(=O)(=O)c3nccn3C)c2)c1` [Compound I-284], the IC50 was 10 to 50 µM in test [1], < 10 µM in test [2], < 10 µM in test [3] and 10 to 50 µM in test [4].

`Cn1cnc(-c2cc(Cl)c(F)c(C(=O)NNS(=O)(=O)CC3CCC(NC(=O)OC(C)(C)C)C3)c2)c1` (stereo not drawn) [Compound I-285]: the half-maximal inhibitory concentration (IC50) in test [1] is < 10 µM; in test [2], < 10 µM; in test [3], < 10 µM; in test [4] it was 10 to 50 µM.

On to `CCNC(=O)NC1CCC(CS(=O)(=O)NNC(=O)c2cc(-c3cn(C)cn3)cc(Cl)c2F)C1` (stereo not drawn) [Compound I-286], for which the IC50 in test [1] is < 10 µM; in test [2] it was < 10 µM; in test [3], < 10 µM; in test [4], 10 to 50 µM.

Regarding `CCNC(=O)N[C@H]1CCC[C@@H](CS(=O)(=O)NNC(=O)c2cc(-c3cn(C)cn3)cc(Cl)c2F)C1` [Compound I-287], the IC50 is < 10 µM in test [1], < 10 µM in test [2], < 10 µM in test [3] and 10 to 50 µM in test [4].

Take `Cn1cnc(-c2cc(Cl)c(F)c(C(=O)NNS(=O)(=O)C[C@H]3CCC[C@H](OCc4ccccc4)C3)c2)c1` [Compound I-288]: the half-maximal inhibitory concentration (IC50) in test [1] is < 10 µM; in test [2] it was < 10 µM; in test [3], < 10 µM; in test [4] it was 10 to 50 µM.
